How the values were obtained:
[1] = test system: LPS-induced PGE2 in RAW264.7 cells; assay: Prostaglandin E2 (PGE2) assay; type: cell-based, mouse; conditions: 25 or 50 μM added 30 minutes before LPS
Experimental: One milliliter (1 mL) of murine macrophage cell line RAW264.7 (4×10^5 cells/mL) was seeded on a 12-well plate overnight. After overnight incubation, cells were serum starved in DMEM medium containing 2% Fetal Bovine Serum (FBS) for 3 hours. Then, Tellimagrandin II was added so that final concentrations of 10, 25 and 50 μM were obtained. Thus, after a 30-min incubation, murine macrophage cells were treated with LPS for 16 h and the cell culture supernatant was collected. Cell-free supernatants were diluted and PGE 2 in culture supernatants were detected by using a PGE2 assay kit (R&D system). The purpose of the study was to evaluate the LPS-induced PGE2 expression by co-treating with Tellimagrandin II.

[2] = test system: human erythromyeloblastoid leukemia K-562 cell; assay: Cell viability WST-1 assay; type: cell-based
Experimental: Quantitative cell viability assessed using WST-1 assay. WST-1 is a reagent which produces a highly water soluble formazan upon metabolically active cells, allowing a direct colorimetric measurement of cell viability.
The K-562 cells were plated in a 96-well culture plate at a seeding density of 6,000 cells/well (100 μL) and incubated at 37° C. with 5% CO2 for 16˜18 hours. Cells were treated with 20 μL Tellimagrandin II to make the final concentrations of 0, 20, 40, 60 and 80 μM, and incubated at 37° C. with 5% CO2 for 24 and 48 hours. Cells without Tellimagrandin II treatment used as a control. Added 12 μL of WST-1 reagent (10:1) to each well of the plate and mixed well, then incubated at 37° C. in a 5% CO2 incubator for 2 hours. After incubation, the absorbance at 450 nm (test wavelength) and 630 nm (reference wavelength) were measured. Data was calculated by subtracting the 630 nm background absorbance from the 450 nm measurement.

[3] = test system: mouse macrophage cell line RAW264.7; assay: Cell viability assay (alamarBlue); type: cell-based; conditions: 50 μg/mL or lower doses, 24 hours
Experimental: AlamarBlue reagent was used to assess cell viability. RAW264.7 cells (2×10^4 in 200 μL of medium) were seeded on the 96-well plate. After overnight incubation, cells were serum starved in DMEM medium containing 2% Fetal Bovine Serum (FBS) for 3 hours. There were several groups: cells without DMSO or Tellimagrandin II treatment (controls); cell treated with DMSO (control); cells treated with Tellimagrandin II with different concentrations (10, 25, 50, 75 and 100 μM, diluted in DMSO) (test groups). Each group was determined in duplicate.
After 24 hours, the cell medium was removed and discarded, and the cells were resuspended with 180 μL of fresh culture medium. Each cell suspension was added with 20 μL alamarBlue. The plate was then placed in incubator for another 4 hours. After incubation, the absorbance of the medium was measured at 570 and 600 nm, and cell viability was analyzed by using the following formula:
[formula] • O1: molar extinction coefficient (E) of oxidized alamarBlue at 570 nm • O2: molar extinction coefficient (E) of oxidized alamarBlue at 600 nm • A1: absorbance of test wells at 570 nm • A2: absorbance of test wells at 600 nm • P1: absorbance of positive growth control well at 570 nm • P2: absorbance of positive growth control well at 600 nm

K-562 cells = assay: Western blotting of apoptosis and cell cycle proteins; type: cell-based, human; conditions: 40 and 50 μM, 48 hours
Experimental: A total of 3 mL cell solution at the concentration of 1×10^6K-562 cells per mL was cultured in 6 cm cell culture dish in an incubator supplied with 5% CO2 at 37° C. for 30 minutes so that cells could adapt to the environment. Tellimagrandin II solutions of different concentrations were added by order so that the final concentrations are 0, 40 and 50 μM, respectively. The solution was placed in incubator with 5% CO2 at 37° C. for 48 hours. After incubation, it was centrifuged at 1,000 rpm at 4° C. for 5 minutes and rinsed by PBS once. RIPA buffer solution containing protease inhibitors was added to decompose the cells.
The solution was rapidly frozen with liquid nitrogen and unfrozen for three times to ensure that cells had been broken by the physical damages. The solution was centrifuged at 15,000 rpm at 4° C. for 30 minutes; the supernatant containing total cell protein was collected. Protein concentrations were determined by BCA protein assay. Finally, equal amounts of protein samples (40 μg) were boiled in 1× loading buffer for 3 minutes to decompose protein into primary structure for further protein gel electrophoresis (or stored at −80° C.).
SDS-PAGE 10% or 12% was selected by the desired protein molecular weight in the protein gel electrophoresis (150 V, 17 mA for 2 hour and 5 minutes). The protein was transferred from the gel to PVDF membrane using wet transfer procedure (100 V, 300 mA for 30 minutes). The membrane was blocked at room temperature for one hour in Tris-buffered saline-Tween (TBS-T) buffer solution containing 2% Bovine serum albumin (BSA) to eliminate non-specifically binding.
PVDF membrane was probed with primary antibody diluted with by the recommended amount according the manufacture in 2% BSA-TBS-T buffer solution at 4° C. for 16 to 18 hours. After the interaction completed, TBS-T buffer solution was used to rinse out the non-specifically bound primary antibody. TBS-T buffer solution was changed every 10 minutes for three times in about 30 minutes. Then, specific secondary antibody was added for interaction at room temperature for one hour. TBS-T buffer solution was used to rinse out the non-specifically bound secondary antibody. TBS-T buffer solution was changed every 10 minutes for six times in about 60 minutes. ECL System (Enhanced chemiluminescence system) was used and film was exposed to light and developed. Finally qualitative analysis was performed. […] Protein related to cell cycle regulation includes G2/M checkpoint regulators, Cyclin B1 and Cdc-25C.

[4] = test system: MSSA (Methicillin-susceptible Staphylococcus aureus); assay: Minimum inhibitory concentration (broth microdilution) and FIC index; type: cell-based; conditions: Staphylococcus aureus, MSSA, read-out: Minimum inhibitory concentration
Experimental: A serial of twofold dilution of the tested antibiotics (oxacillin, erythromycin, ampicillin, kanamycin, levofoxacin, vancomycin and doxycycline) was perform by Broth microdilution method to a final concentration of 2-512 μg/mL. The bacterial overnight culture was collected and re-suspended in the Muller-Hilton (M-H) broth. An aliquot of cell suspension (OD600=0.1) was prepared. The bacterial suspensions were plated in 96-well plate and incubated with test antibiotics at 37° C. in a 5% CO2 incubator (Table 1 to Table 4).
The […], […] and antagonism between two drugs was evaluated by the following formula:
[formula] The criteria of fractional inhibitory concentration index: […]

**Q.** What does the source list for O=C(OC1O[C@@H]2COC(=O)c3cc(O)c(O)c(O)c3-c3c(cc(O)c(O)c3O)C(=O)O[C@H]2[C@H](OC(=O)c2cc(O)c(O)c(O)c2)[C@H]1OC(=O)c1cc(O)c(O)c(O)c1)c1cc(O)c(O)c(O)c1 (stereo partly shown) [Tellimagrandin II]?
**A.** expression of PGE2 [1]: significantly reduced the expression of PGE2; IC50 ([2]; K562, 24 hr): 57 µM; IC50 ([2]; K562, 48 hr): 48.1 µM; Cell viability [3]: not affected significant; Caspase-8 (inactive form) (K-562 cells): decreases; Caspase-9, Caspase-3, and Caspase-7 (K-562 cells): activation; Cyclin B1 and Cdc-25C (non-phosphorylated) activity (K-562 cells): decreased; PARP (K-562 cells): ultimate activation; protein of anti-apoptosis Bcl-2 (K-562 cells): decrease; MIC [4]: 64 µg/mL

From US8975234B2, “Anti-bacterial infection, inflammation, and leukemia composition and use thereof” (priority 2011, dated 2015)
